Source: the supplement of paper PMC13207355

Key:
Conditions in all cases: exposure time: 72 h
E13 [1] = patient-derived glioblastoma stem cells of classical subtype; assay: surviving fraction (nuclei count normalised to DMSO); higher = more cells surviving (less toxic)
E21 [2] = patient-derived glioblastoma stem cells of mesenchymal subtype; assay: as above
E28 [3] = patient-derived glioblastoma stem cells of classical subtype; assay: as above
E31 [4] = patient-derived glioblastoma stem cells of proneural subtype; assay: as above
E34 [5] = patient-derived glioblastoma stem cells of proneural subtype; assay: as above
E57 [6] = patient-derived glioblastoma stem cells of mesenchymal subtype; assay: as above
FT3469 [7] = normal neural stem cell line; assay: as above
E13 [8] = assay: phenotypic distance (Euclidean, principal components) from DMSO controls (arbitrary units); higher = stronger morphological change
E21 [9] = assay: as above
E28 [10] = assay: as above
E31 [11] = assay: as above
E34 [12] = assay: as above
E57 [13] = assay: as above
FT3469 [14] = assay: as above
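Throughout, for phenotypic distance (Euclidean, principal components) from DMSO controls: cell Painting imaging in 384-well plates, CellProfiler features reduced to at least 20 principal components, Euclidean distance versus same-plate DMSO vehicle wells (0.1% v/v), median over six images per well.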
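Throughout, for surviving fraction (nuclei count normalised to DMSO): nuclei counted by high-content imaging of Hoechst-stained cells in laminin-coated 384-well plates, relative to 0.1% DMSO vehicle wells, with staurosporine as cell-death control.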

COc1ccc2c(c1)CC[C@@H]1[C@@H]2CC[C@]2(C)[C@@H](NCCCCCCN3C(=O)CCC3=O)CC[C@@H]12
surviving fraction (E13 [1]; 4.1 nM): 0.826
surviving fraction (E13 [1]; 12.3 nM): 0.95
surviving fraction (E13 [1]; 37 nM): 0.876
surviving fraction (E13 [1]; 111.1 nM): 0.929
surviving fraction (E13 [1]; 333.3 nM): 0.981
surviving fraction (E13 [1]; 1000 nM): 0.804
surviving fraction (E13 [1]; 3000 nM): 0.52
surviving fraction (E21 [2]; 4.1 nM): 1.03
surviving fraction (E21 [2]; 12.3 nM): 0.961
surviving fraction (E21 [2]; 37 nM): 0.951
surviving fraction (E21 [2]; 111.1 nM): 1.13
surviving fraction (E21 [2]; 333.3 nM): 1.06
surviving fraction (E21 [2]; 1000 nM): 0.867
surviving fraction (E21 [2]; 3000 nM): 0.645
surviving fraction (E28 [3]; 4.1 nM): 1.09
surviving fraction (E28 [3]; 12.3 nM): 1.03
surviving fraction (E28 [3]; 37 nM): 1.03
surviving fraction (E28 [3]; 111.1 nM): 1.09
surviving fraction (E28 [3]; 333.3 nM): 1.1
surviving fraction (E28 [3]; 1000 nM): 1.01
surviving fraction (E28 [3]; 3000 nM): 0.973
surviving fraction (E31 [4]; 4.1 nM): 0.965
surviving fraction (E31 [4]; 12.3 nM): 1.14
surviving fraction (E31 [4]; 37 nM): 0.985
surviving fraction (E31 [4]; 111.1 nM): 1.05
surviving fraction (E31 [4]; 333.3 nM): 1.06
surviving fraction (E31 [4]; 1000 nM): 0.962
surviving fraction (E31 [4]; 3000 nM): 0.624
surviving fraction (E34 [5]; 4.1 nM): 0.876
surviving fraction (E34 [5]; 12.3 nM): 0.901
surviving fraction (E34 [5]; 37 nM): 1.13
surviving fraction (E34 [5]; 111.1 nM): 0.957
surviving fraction (E34 [5]; 333.3 nM): 0.939
surviving fraction (E34 [5]; 1000 nM): 0.979
surviving fraction (E34 [5]; 3000 nM): 0.986
surviving fraction (E57 [6]; 4.1 nM): 1.11
surviving fraction (E57 [6]; 12.3 nM): 1.04
surviving fraction (E57 [6]; 37 nM): 1.13
surviving fraction (E57 [6]; 111.1 nM): 1.13
surviving fraction (E57 [6]; 333.3 nM): 1.17
surviving fraction (E57 [6]; 1000 nM): 1.11
surviving fraction (E57 [6]; 3000 nM): 0.936
surviving fraction (FT3469 [7]; 4.1 nM): 0.984
surviving fraction (FT3469 [7]; 12.3 nM): 1.11
surviving fraction (FT3469 [7]; 37 nM): 1.03
surviving fraction (FT3469 [7]; 111.1 nM): 1.11
surviving fraction (FT3469 [7]; 333.3 nM): 1.06
surviving fraction (FT3469 [7]; 1000 nM): 0.922
surviving fraction (FT3469 [7]; 3000 nM): 0.983
phenotypic distance (E13 [8]; 4.1 nM): 1.07
phenotypic distance (E13 [8]; 12.3 nM): 0.714
phenotypic distance (E13 [8]; 37 nM): 0.93
phenotypic distance (E13 [8]; 111.1 nM): 1.11
phenotypic distance (E13 [8]; 333.3 nM): 1.31
phenotypic distance (E13 [8]; 1000 nM): 2.29
phenotypic distance (E13 [8]; 3000 nM): 3.72
phenotypic distance (E21 [9]; 4.1 nM): 0.642
phenotypic distance (E21 [9]; 12.3 nM): 0.74
phenotypic distance (E21 [9]; 37 nM): 0.741
phenotypic distance (E21 [9]; 111.1 nM): 0.893
phenotypic distance (E21 [9]; 333.3 nM): 0.934
phenotypic distance (E21 [9]; 1000 nM): 1.42
phenotypic distance (E21 [9]; 3000 nM): 4.65
phenotypic distance (E28 [10]; 4.1 nM): 0.61
phenotypic distance (E28 [10]; 12.3 nM): 0.49
phenotypic distance (E28 [10]; 37 nM): 0.46
phenotypic distance (E28 [10]; 111.1 nM): 0.724
phenotypic distance (E28 [10]; 333.3 nM): 0.645
phenotypic distance (E28 [10]; 1000 nM): 0.805
phenotypic distance (E28 [10]; 3000 nM): 2.44
phenotypic distance (E31 [11]; 4.1 nM): 0.697
phenotypic distance (E31 [11]; 12.3 nM): 0.31
phenotypic distance (E31 [11]; 37 nM): 0.566
phenotypic distance (E31 [11]; 111.1 nM): 0.735
phenotypic distance (E31 [11]; 333.3 nM): 1.61
phenotypic distance (E31 [11]; 1000 nM): 2.54
phenotypic distance (E31 [11]; 3000 nM): 6.23
phenotypic distance (E34 [12]; 4.1 nM): 1.13
phenotypic distance (E34 [12]; 12.3 nM): 0.657
phenotypic distance (E34 [12]; 37 nM): 0.637
phenotypic distance (E34 [12]; 111.1 nM): 0.671
phenotypic distance (E34 [12]; 333.3 nM): 0.968
phenotypic distance (E34 [12]; 1000 nM): 1.06
phenotypic distance (E34 [12]; 3000 nM): 0.95
phenotypic distance (E57 [13]; 4.1 nM): 3.52
phenotypic distance (E57 [13]; 12.3 nM): 0.302
phenotypic distance (E57 [13]; 37 nM): 0.424
phenotypic distance (E57 [13]; 111.1 nM): 0.621
phenotypic distance (E57 [13]; 333.3 nM): 1.22
phenotypic distance (E57 [13]; 1000 nM): 1.78
phenotypic distance (E57 [13]; 3000 nM): 2.68
phenotypic distance (FT3469 [14]; 4.1 nM): 0.686
phenotypic distance (FT3469 [14]; 12.3 nM): 0.245
phenotypic distance (FT3469 [14]; 37 nM): 0.58
phenotypic distance (FT3469 [14]; 111.1 nM): 0.496
phenotypic distance (FT3469 [14]; 333.3 nM): 0.408
phenotypic distance (FT3469 [14]; 1000 nM): 0.646
phenotypic distance (FT3469 [14]; 3000 nM): 0.711
